Molecular target: rat MCH-1 (Rattus norvegicus, UniProt P97639)
Test: Radioligand binding assay at cloned rat MCH1 receptor ([3H] Compound A)
Set-up: host or cells: Peak rapid 293 (Peakr293) cells, transient calcium phosphate transfection, membranes
Conditions: cloned rat MCH1 receptor; 0.08 nM [3H] Compound A; Peakr293 cell membranes; read-out: Ki (nM) rMCH1

Chain of rat MCH-1 (P97639 whole entry): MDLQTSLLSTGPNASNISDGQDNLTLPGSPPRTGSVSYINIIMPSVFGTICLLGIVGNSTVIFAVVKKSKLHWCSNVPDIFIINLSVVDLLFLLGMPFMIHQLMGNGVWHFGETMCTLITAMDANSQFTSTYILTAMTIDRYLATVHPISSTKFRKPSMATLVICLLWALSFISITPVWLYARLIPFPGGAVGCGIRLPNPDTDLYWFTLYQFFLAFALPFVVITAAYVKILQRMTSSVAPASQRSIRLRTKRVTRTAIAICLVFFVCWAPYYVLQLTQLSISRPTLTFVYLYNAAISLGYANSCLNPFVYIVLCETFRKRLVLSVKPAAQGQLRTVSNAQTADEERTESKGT

| Ki [nM] | Compound |
| --- | --- |
| 14.9 | Cc1cccc2c(CCCN3CCC(c4cccc(NC(=O)C(C)C)c4)CC3)c(-c3ccc(Cl)cc3)[nH]c12 [Example 719] |
| 12.5 | Cc1ccc2[nH]c(-c3ccc(Cl)cc3)c(CCCN3CCC(c4cccc(NC(=O)C(C)C)c4)CC3)c2c1 [Example 720] |
| 75.3 | CC(C)C(=O)Nc1cccc(C2CCN(CCCc3c(-c4ccc(Cl)cc4)n(-c4ccccc4)c4ccccc34)CC2)c1 [Example 721] |
| 6.4 | Cc1cccc2c(CCCN3CCC(c4cccc(NC(=O)C(C)C)c4)CC3)c(-c3cccc(Cl)c3)[nH]c12 [Example 722] |
| 9.2 | CC(C)C(=O)Nc1cccc(C2CCN(CCCc3c(-c4cccc(Cl)c4)[nH]c4ccc(OC(F)(F)F)cc34)CC2)c1 [Example 723] |
| 5 | CC(C)C(=O)Nc1cccc(C2CCN(CCCc3c(-c4cccc(Cl)c4)n(C)c4ccccc34)CC2)c1 [Example 724] |
| 152 | CC(C)C(=O)Nc1cccc(C2CCN(CCCc3c(-c4cccc(Cl)c4)n(-c4ccccc4)c4ccccc34)CC2)c1 [Example 725] |
| 5 | COc1ccc2[nH]c(-c3cccc(Cl)c3)c(CCCN3CCC(c4cccc(NC(=O)C(C)C)c4)CC3)c2c1 [Example 726] |
| 3.4 | Cc1ccc2[nH]c(-c3cccc(Cl)c3)c(CCCN3CCC(c4cccc(NC(=O)C(C)C)c4)CC3)c2c1 [Example 727] |
| 16.3 | CC(C)C(=O)Nc1cccc(C2CCN(CCCc3c(-c4cccc(Cl)c4)[nH]c4c3ccc3ccccc34)CC2)c1 [Example 728] |
| 1.7 | CC(C)C(=O)Nc1cccc(C2CCN(CCCc3c(-c4cccc(Cl)c4)[nH]c4ccccc34)CC2)c1 [Example 729] |
| 0.9 | CC(C)C(=O)Nc1cccc(C2CCN(CCCc3c(-c4ccccc4Cl)[nH]c4ccccc34)CC2)c1 [Example 730] |
| 9.9 | CC(C)C(=O)Nc1cccc(C2CCN(CCCc3c(-c4ccccc4Cl)[nH]c4ccc(OC(F)(F)F)cc34)CC2)c1 [Example 731] |
| 5.8 | CC(C)C(=O)Nc1cccc(C2CCN(CCCc3c(-c4ccccc4Cl)[nH]c4c3ccc3ccccc34)CC2)c1 [Example 732] |
| 10 | Cc1cccc2c(CCCN3CCC(c4cccc(NC(=O)C(C)C)c4)CC3)c(-c3ccccc3Cl)[nH]c12 [Example 733] |
| 28.6 | CC(C)C(=O)Nc1cccc(C2CCN(CCCc3c(-c4ccccc4Cl)n(-c4ccccc4)c4ccccc34)CC2)c1 [Example 734] |
| 1.1 | CC(C)C(=O)Nc1cccc(C2CCN(CCCc3c(-c4ccccc4Cl)n(C)c4ccccc34)CC2)c1 [Example 735] |
| 5.7 | Cc1ccc2[nH]c(-c3ccccc3Cl)c(CCCN3CCC(c4cccc(NC(=O)C(C)C)c4)CC3)c2c1 [Example 736] |
| 1 | CC(C)C(=O)Nc1cccc(C2CCN(CCCc3c(-c4cccc(I)c4)[nH]c4ccccc34)CC2)c1 [Example 737] |
| 10.2 | CC(C)C(=O)Nc1cccc(C2CCN(CCCc3c(-c4cccc(I)c4)n(C)c4ccccc34)CC2)c1 [Example 738] |
| 214 | CC(C)C(=O)Nc1cccc(C2CCN(CCCc3c(-c4cccc(I)c4)n(-c4ccccc4)c4ccccc34)CC2)c1 [Example 739] |
| 12.2 | CC(C)C(=O)Nc1cccc(C2CCN(CCCc3c(-c4cccc(I)c4)[nH]c4c3ccc3ccccc34)CC2)c1 [Example 740] |
| 2.8 | CC(C)C(=O)Nc1cccc(C2CCN(CCCc3c(-c4cccc(I)c4)[nH]c4ccc(OC(F)(F)F)cc34)CC2)c1 [Example 741] |
| 1.4 | Cc1ccc2[nH]c(-c3cccc(I)c3)c(CCCN3CCC(c4cccc(NC(=O)C(C)C)c4)CC3)c2c1 [Example 742] |
| 4.1 | Cc1cccc2c(CCCN3CCC(c4cccc(NC(=O)C(C)C)c4)CC3)c(-c3cccc(I)c3)[nH]c12 [Example 743] |
| 47.1 | CC(C)C(=O)Nc1cccc(C2CCN(CCCc3c(-c4ccc(I)cc4)[nH]c4ccc(OC(F)(F)F)cc34)CC2)c1 [Example 744] |
| 15.8 | Cc1ccc2[nH]c(-c3ccc(I)cc3)c(CCCN3CCC(c4cccc(NC(=O)C(C)C)c4)CC3)c2c1 [Example 745] |
